Results on 24 molecules are retold here after patent publication US7109193B2, “Tricyclic diazepines tocolytic oxytocin receptor antagonists” (Wyeth, priority 2001, dated 2006).

The experiment addresses T1, human vasopressin V1a receptor subtype (Homo sapiens, UniProt P37288).
T1 construct: host or cells: CHO cells (pZeoSV vector for the Thibonnier line)
The experiment in a line: Vasopressin binding in Chinese Hamster Ovary cell membranes expressing human vasopressin V1a subtype receptors. The settings on record: 100 nM, CHO cell membranes, [3H]Manning ligand, values without parentheses. The procedure, abridged: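 Membranes from CHO cells expressing human V1a receptor were incubated with [3H]Manning ligand (added as 20 μL of 8 nM) in pH 7.4 Tris buffer with MgCl2, BSA and protease inhibitors, 60 min at room temperature. Bound radioactivity was counted after filtration; values are percent inhibition at a stated concentration or IC50.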

T1 sequence (P37288 whole entry): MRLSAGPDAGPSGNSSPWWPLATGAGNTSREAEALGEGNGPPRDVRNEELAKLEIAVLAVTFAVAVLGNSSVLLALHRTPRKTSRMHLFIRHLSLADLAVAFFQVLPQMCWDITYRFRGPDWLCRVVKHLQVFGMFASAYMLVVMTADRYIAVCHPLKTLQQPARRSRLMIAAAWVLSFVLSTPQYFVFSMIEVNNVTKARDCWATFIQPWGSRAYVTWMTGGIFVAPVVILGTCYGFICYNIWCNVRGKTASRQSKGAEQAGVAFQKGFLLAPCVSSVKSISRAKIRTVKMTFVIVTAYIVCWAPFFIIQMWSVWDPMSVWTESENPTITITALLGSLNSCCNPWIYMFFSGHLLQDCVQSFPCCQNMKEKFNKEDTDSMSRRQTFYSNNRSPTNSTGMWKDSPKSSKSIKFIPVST

Take `Cc1ccccc1-c1ccc(C(=O)N2Cc3ccc(C(=O)N(C)C4CCN(C)CC4)n3Cc3ccccc32)cc1` [Example 178, N-Methyl-10-[(2′-methyl[1,1′-biphenyl]-4-yl)carbonyl]-N-(1-methyl-4-piperidinyl)-10,11-dihydro-5H-pyrrolo[2,1-c][1,4]benzodiazepine-3-carboxamide]: the inhibition at 0.1 µM amounted to 79%.
As for `COc1cc(C(=O)N2Cc3ccc(C(=O)N(C)C4CCN(C)CC4)n3Cc3ccccc32)ccc1-c1ccccc1C` [Example 179, 10-[(2-Methoxy-2′-methyl[1,1′-biphenyl]-4-yl)carbonyl]-N-methyl-N-(1-methyl-4-piperidinyl)-10,11-dihydro-5H-pyrrolo[2,1-c][1,4]benzodiazepine-3-carboxamide], the inhibition at 0.1 µM is 73%.
The value for `COc1cc(-c2ccccc2C)c(Cl)cc1C(=O)N1Cc2ccc(C(=O)N(C)C3CCN(C)CC3)n2Cc2ccccc21` [Example 180, 10-[(6-Chloro-3-methoxy-2′-methyl[1,1′-biphenyl]-4-yl)carbonyl]-N-methyl-N-(1-methyl-4-piperidinyl)-10,11-dihydro-5H-pyrrolo[2,1-c][1,4]benzodiazepine-3-carboxamide] was 26%; that for `COc1cccc(-c2cc(OC)c(C(=O)N3Cc4ccc(C(=O)N(C)C5CCN(C)CC5)n4Cc4ccccc43)cc2Cl)c1` [Example 181, 10-[(6-Chloro-3,3′-dimethoxy[1,1′-biphenyl]-4-yl)carbonyl]-N-methyl-N-(1-methyl4-piperidinyl)-10,11-dihydro-5H-pyrrolo[2,1-c][1,4]benzodiazepine-3-carboxamide] was 23%; that for `COc1cc(C(=O)N2Cc3ccc(C(=O)N(C)C4CCN(C)CC4)n3Cc3ccccc32)ccc1-c1cccc2ccccc12` [Example 182, 10-[3-Methoxy-4-(1-naphthyl)benzoyl]-N-methyl-N-(1-methyl-4-piperidinyl)-10,11-dihydro-5H-pyrrolo[2,1-c][1,4]benzodiazepine-3-carboxamide] was 14%.
Turning to `COc1ccccc1-c1ccc(C(=O)N2Cc3ccc(C(=O)N(C)C4CCN(C)CC4)n3Cc3ccccc32)cc1OC` [Example 183, 10-[(2,2′-Dimethoxy[1,1′-biphenyl]-4-yl)carbonyl]-N-methyl-N-(1-methyl-4-piperidinyl)-10,11-dihydro-5H-pyrrolo[2,1-c][1,4]benzodiazepine-3-carboxamide], the inhibition at 0.1 µM was found to be 26%.
Turning to `Cc1cc(C(=O)N2Cc3ccc(C(=O)N(C)C4CCN(C)CC4)n3Cc3ccccc32)ccc1-c1ccccc1C(F)(F)F` [Example 184, N-Methyl-N-(1-methyl-4-piperidinyl)-10-{[2-methyl-2′-(trifluoromethyl)[1,1′-biphenyl]-4-yl]carbonyl}-10,11-dihydro-5H-pyrrolo[2,1-c][1,4]benzodiazepine-3-carboxamide], the inhibition at 0.1 µM worked out at 0%.
With `COc1ccccc1-c1ccc(C(=O)N2Cc3ccc(C(=O)N(C)C4CCN(C)C4)n3Cc3ccccc32)cc1C` (stereo not drawn) [Example 185, 10-[(2′-Methoxy-2-methyl[1,1′-biphenyl]-4-yl)carbonyl]-N-methyl-N-(1-methyl-3-pyrrolidinyl)-10,11-dihydro-5H-pyrrolo[2,1-c][1,4]benzodiazepine-3-carboxamide], the inhibition at 0.1 µM came out at 37%.
The value for `COc1cccc(-c2ccc(C(=O)N3Cc4ccc(C(=O)N(C)C5CCN(C)C5)n4Cc4ccccc43)cc2C)c1` (stereo not drawn) [Example 186, 10-[(3′-Methoxy-2-methyl[1,1′-biphenyl]-4-yl)carbonyl]-N-methyl-N-(1-methyl-3-pyrrolidinyl)-10,11-dihydro-5H-pyrrolo[2,1-c][1,4]benzodiazepine-3-carboxamide] was 53%.
The result for `COc1ccccc1-c1ccc(C(=O)N2Cc3ccc(C(=O)N(C)C4CCN(C)C4)n3Cc3ccccc32)cc1` (stereo not drawn) [Example 187, 10-[(2′-Methoxy[1,1′-biphenyl]-4-yl)carbonyl]-N-methyl-N-(1-methyl-3-pyrrolidinyl)-10,11-dihydro-5H-pyrrolo[2,1-c][1,4]benzodiazepine-3-carboxamide] reads 81%; that for `Cc1ccccc1-c1ccc(C(=O)N2Cc3ccc(C(=O)N(C)C4CCN(C)C4)n3Cc3ccccc32)cc1` (stereo not drawn) [Example 188, N-Methyl-10-[(2′-methyl[1,1′-biphenyl]-4-yl)carbonyl]-N-(1-methyl-3-pyrrolidinyl)-10,11-dihydro-5H-pyrrolo[2,1-c][1,4]benzodiazepine-3-carboxamide], 89%.
With `COc1cc(C(=O)N2Cc3ccc(C(=O)N(C)C4CCN(C)C4)n3Cc3ccccc32)ccc1-c1ccccc1C` (stereo not drawn) [Example 189, 10-[(2-Methoxy-2′-methyl[1,1′-biphenyl]-4-yl)carbonyl]-N-methyl-N-(1-methyl-3-pyrrolidinyl)-10,11-dihydro-5H-pyrrolo[2,1-c][1,4]benzodiazepine-3-carboxamide], the inhibition at 0.1 µM was 83%.
The value for `COc1cc(-c2ccccc2C)c(Cl)cc1C(=O)N1Cc2ccc(C(=O)N(C)C3CCN(C)C3)n2Cc2ccccc21` (stereo not drawn) [Example 190, 10-[(6-Chloro-3-methoxy-2′-methyl[1,1′-biphenyl]-4-yl)carbonyl]-N-methyl-N-(1-methyl-3-pyrrolidinyl)-10,11-dihydro-5H-pyrrolo[2,1-c][1,4]benzodiazepine-3-carboxamide] was 40%; that for `COc1cccc(-c2cc(OC)c(C(=O)N3Cc4ccc(C(=O)N(C)C5CCN(C)C5)n4Cc4ccccc43)cc2Cl)c1` (stereo not drawn) [Example 191, 10-[(6-Chloro-3,3′-dimethoxy[1,1′-biphenyl]-4-yl)carbonyl]-N-methyl-N-(1-methyl-3-pyrrolidinyl)-10,11-dihydro-5H-pyrrolo[2,1-c][1,4]benzodiazepine-3-carboxamide] was 41%; that for `COc1cc(C(=O)N2Cc3ccc(C(=O)N(C)C4CCN(C)C4)n3Cc3ccccc32)ccc1-c1cccc2ccccc12` (stereo not drawn) [Example 192, 10-[3-Methoxy-4-(1-naphthyl)benzoyl]-N-methyl-N-(1-methyl-3-pyrrolidinyl)-10,11-dihydro-5H-pyrrolo[2,1-c][1,4]benzodiazepine-3-carboxamide] was 31%.
The result for `COc1ccccc1-c1ccc(C(=O)N2Cc3ccc(C(=O)N(C)C4CCN(C)C4)n3Cc3ccccc32)cc1OC` (stereo not drawn) [Example 193, 10-[(2,2′-Dimethoxy[1,1′-biphenyl]-4-yl)carbonyl]-N-methyl-N-(1-methyl-3-pyrrolidinyl)-10,11-dihydro-5H-pyrrolo[2,1-c][1,4]benzodiazepine-3-carboxamide] reads 41%.
Regarding `Cc1cc(C(=O)N2Cc3ccc(C(=O)N(C)C4CCN(C)C4)n3Cc3ccccc32)ccc1-c1ccccc1C(F)(F)F` (stereo not drawn) [Example 194, N-Methyl-N-(1-methyl-3-pyrrolidinyl)-10-{[2-methyl-2′-(trifluoromethyl)[1,1′-biphenyl]-4-yl]carbonyl}-10,11-dihydro-5H-pyrrolo[2,1-c][1,4]benzodiazepine-3-carboxamide], the inhibition at 0.1 µM is 23%.
In the case of `Cc1ccccc1-c1ccc(C(=O)N2Cc3ccc(C(=O)N4CCN(CCN(C)C)CC4)n3Cc3ccccc32)cc1C` [Example 198, {4-[2-(Dimethylamino)ethyl]-1-piperazinyl}{10-[(2,2′-dimethyl[1,1′-biphenyl]-4-yl)carbonyl]-10,11-dihydro-5H-pyrrolo[2,1-c][1,4]benzodiazepin-3-yl}methanone], the inhibition at 0.1 µM came out at 50%.
Turning to `Cc1ccccc1-c1ccc(C(=O)N2Cc3ccc(C(=O)N4CCN(CCN(C)C)CC4)n3Cc3ccccc32)cc1` [Example 200, {4-[2-(Dimethylamino)ethyl]-1-piperazinyl}{10-[(2′-methyl[1,1′-biphenyl]-4-yl)carbonyl]-10,11-dihydro-5H-pyrrolo[2,1-c][1,4]benzodiazepin-3-yl}methanone], the inhibition at 0.1 µM worked out at 64%.
`COc1cc(C(=O)N2Cc3ccc(C(=O)N4CCN(CCN(C)C)CC4)n3Cc3ccccc32)ccc1-c1ccccc1C` [Example 201, {4-[2-(Dimethylamino)ethyl]-1-piperazinyl}{10-[(2-methoxy-2′-methyl[1,1′-biphenyl]-4-yl)carbonyl]-10,11-dihydro-5H-pyrrolo[2,1-c][1,4]benzodiazepin-3-yl}methanone]: the inhibition at 0.1 µM is 43%.
The result for `COc1cccc(-c2cc(OC)c(C(=O)N3Cc4ccc(C(=O)N5CCN(CCN(C)C)CC5)n4Cc4ccccc43)cc2Cl)c1` [Example 202, {10-[(6-Chloro-3,3′-dimethoxy[1,1′-biphenyl]-4-yl)carbonyl]-10,11-dihydro-5H-pyrrolo[2,1-c][1,4]benzodiazepin-3-yl}{4-[2-(dimethylamino)ethyl]-1-piperazinyl}methanone] reads 2%; that for `COc1cc(C(=O)N2Cc3ccc(C(=O)N4CCN(CCN(C)C)CC4)n3Cc3ccccc32)ccc1-c1cccc2ccccc12` [Example 203, {4-[2-(Dimethylamino)ethyl]-1-piperazinyl}{10-[3-methoxy-4-(1-naphthyl)benzoyl]-10,11-dihydro-5H-pyrrolo[2,1-c][1,4]benzodiazepin-3-yl}methanone], 4%; that for `COc1ccccc1-c1ccc(C(=O)N2Cc3ccc(C(=O)N4CCN(CCN(C)C)CC4)n3Cc3ccccc32)cc1OC` [Example 204, {10-[(2,2′-Dimethoxy[1,1′-biphenyl]-4-yl)carbonyl]-10,11-dihydro-5H-pyrrolo[2,1-c][1,4]benzodiazepin-3-yl}{4-[2-(dimethylamino)ethyl]-1-piperazinyl}methanone], 16%.
`CN(C)CCN1CCN(C(=O)c2ccc3n2Cc2ccccc2N(C(=O)c2ccc(-c4cccc5ccccc45)cc2Cl)C3)CC1` [Example 205, {10-[2-Chloro-4-(1-naphthyl)benzoyl]-10,11-dihydro-5H-pyrrolo[2,1-c][1,4]benzodiazepin-3-yl}{4-[2-(dimethylamino)ethyl]-1-piperazinyl}methanone]: the inhibition at 0.1 µM was -6%.
